Laboratory results reported in publication PMC10940605, “Design, synthesis and in vitro anticancer activity of some new lomefloxacin derivatives” (Scientific Reports, 2024).

System: leukemia SR cells
Test: Cell cycle analysis, PI flow cytometry
Format: cell-based, human
Set-up: increase of cells at pre-G1 phase vs control: concentration or dose not given beside the values
Experimental: The cells were washed twice using Ice-cold phosphate buffer saline (PBS). • Centrifugation was used to collect the cells, then the cells were fixed in 70% (v/v) ethanol, washed with PBS and re-suspended with 0.10 mg/mL RNase. • After that, cells were stained with […] propidium iodide (PI) and evaluated by flow cytometry using FACSCalibur (Becton Dickinson).

CCn1cc(C(=O)NN=Cc2cccs2)c(=O)c2cc(F)c(N3CCNC(C)C3)c(F)c21 (centres unmarked) [Compound 3e, 1-Ethyl-6,8-difluoro-7-(3-methylpiperazin-1-yl)-4-oxo-N'-(thiophen-2-ylmethylene)-1,4-dihydroquinoline-3-carbohydrazide]
increase of cells at pre-G1 phase vs control: 10.19 folds | %G0-G1 (3e at 1.90 µM, 24 h): 24.66% | %G2-M (3e at 1.90 µM, 24 h): 49.26% | %Pre-G1 (3e at 1.90 µM, 24 h): 26.19% | %S (3e at 1.90 µM, 24 h): 26.08%
